Reference: publication PMC4811417, “Sulforaphane Suppresses Hepatitis C Virus Replication by Up-Regulating Heme Oxygenase-1 Expression through PI3K/Nrf2 Pathway” (PLoS ONE, 2016)
Read-outs that look alike come from different tables or passages of the source.

Tests used:
[1] = Cell viability / cytotoxicity, MTS assay; assay type: cell-based; conditions: human; Ava5 cells, MTS assay; read-out: Cyto-Toxicity (CC50)
Description: (§1) The CellTiter 96 Aqueous One Solution Cell Proliferation assay system (Promega, Madison, WI, USA), which is a colorimetric approach for the detection of the cytotoxic effect of a compound, was used to measure cell viability according to the manufacturer’s protocol. […] The absorbance values were detected at 490 nm using a 96-well plate reader (Bio-Rad, Hertfordshire, UK).

[2] = test system: HCV subgenomic replicon (genotype 1b) in Ava5 cells; test: Anti-HCV activity in HCV replicon (Ava5) cells, qRT-PCR / Western blotting; assay type: cell-based, Hepatitis C virus; conditions: for Selective Index (SI): CC50/EC50, Ava5 cells; for EC50: read-out: Anti-HCV activity (EC50)
Procedure: Huh-7, Huh7.5, Ava5 (harboring HCV subgenomic replicon; genotype 1b) and Huh7.5/J6/JFHEMCVIRESRlucNeo cells (harboring HCV subgenomic replicon RNA and renilla luciferase reporter gene; genotype 2a) obtained from Apath, LLC (St. Louis, MO) were routinely passaged in Dulbecco’s modified Eagle’s medium containing 10% heat-inactivated fetal bovine serum, 1% nonessential amino acids, and 1% antibiotic-antimycotic in a 37°C incubator with a humidified atmosphere containing 5% CO2. Sulforaphane (SFN), phenethyl isothiocyanate, benzyl isothiocyanate, benzyl isothiocyanate, butyl isothiocyanate, allyl isothiocyanate, and HO-1-specific inhibitor (tin protoporphyrin IX dichloride; SnPP) were obtained from Sigma Aldrich Co. (St. Louis, MO, USA). Biliverdin was obtained from MP Biomedicals, Inc (Santa Ana, CA, USA). […] Daclatasvir and telaprevir were obtained from Legend Stat International Co., Ltd (Omdurman, Sudan). Sofosbuvir was obtained from Shanghai Haoyuan Chemexpress Co., Ltd. (Shanghai, China). These compounds were stored at a concentration of 10 mM in 100% dimethyl sulfoxide (DMSO) at 4°C until use. All the reactions were performed using a final concentration of 0.1% DMSO.
(§2) Total cellular RNA extracted from cultured cells was purified using the Total RNA Miniprep Purification Kit (GMbiolab Co., Ltd, Taiwan). RNA samples were reverse transcribed into complementary DNA using the M-MLV Reverse Transcription System (Promega). Quantitative real-time polymerase chain reaction (qRT-PCR) was performed to assess the relative levels of gene expression using the ABI Step One Real-Time PCR-System (ABI Warrington, UK). Glyceraldehydes-3-phosphate dehydrogenase (gapdh) gene expression was used as the endogenous control for normalization in all qRT-PCR analyses. Relative expression was calculated using the comparative Ct method. Absolute quantitation of HCV RNA copies was calculated and determined relative to standard curves comprised of serial dilution of expression plasmids containing the coding sequence of HCV NS5B using RT-qPCR. The primer sequences primers for qRT-PCR were used as previously described (Table 1).
(§3) Western blotting was performed as previously described. Proteins from cell lysates were separated using SDS-PAGE and transferred onto PVDF membranes. The membranes were blocked with 5% nonfat milk in phosphate-buffered saline containing Tween 20 (PBST) and incubated overnight at 4°C with primary antibodies against GAPDH (1:10,000; GeneTex, CA, USA), NS5B (1:5,000; Abcam, Cambridge, MA, USA), Nrf2 (1:3,000; GeneTex), HO-1 (1:3,000; GeneTex), biliverdin reductase A (BVRA), Keap1 and Bach1 (1:1,000; Abcam), and total-phohphoinositide 3-kinase (PI3K) or phosphor-PI3K (1:1000; Cell Signaling Technology, Inc., Beverly, MA, USA). The immunoreactive blot signals were detected using the enhanced chemiluminescence Western blotting reagent (Perkin-Elmer, CT, USA).
To investigate the anti-HCV activity of SFN and its analogs (Fig 1A), Huh-7-derived Ava5 cells that harbor an HCV subgenomic RNA replicon were treated with increasing concentrations of SFN for 3 days. The anti-HCV activity and cytotoxicity of SFN and its analogs were analyzed by qRT-PCR and MTS assay, respectively. […] Moreover, the anti-HCV replication activity of SFN was analyzed by Western blotting and qRT-PCR.

[3] = test system: HCV subgenomic replicon in Ava5 cells; test: Combination of SFN with antiviral drugs in replicon cells (CalcuSyn2, Chou and Talalay); assay type: cell-based, Hepatitis C virus; conditions: for CI values at ED75 / CI values at ED90: fixed ratio, 3 days
Procedure: (§4) The anti-HCV activities of the different combinations were determined by qRT-PCR. The drug combination data were analyzed using CalcuSyn2™ software (Biosoft, Cambridge, UK) based on the method by Chou and Talalay. The multiple drug dose effects and combination index (CI) values were evaluated and presented as antagonism (CI > 1), additivity (CI = 1) or synergism (CI < 1).

[4] = test system: JFH-1 virus particle-infected Huh-7 cells; test: Combination of SFN with antiviral drugs in HCV-infected cells (CalcuSyn2, Chou and Talalay); assay type: cell-based, Hepatitis C virus; conditions: JFH-1-infected Huh-7 cells; for CI values at ED75 / CI values at ED90: fixed ratio, 3 days
Procedure: as §4

[5] = test system: bilirubin / BVR; conditions: Ava5 cells, 3 days
Procedure: Intracellular bilirubin level was quantified as previously described [24]. Cells were seeded in 6-well plates at a density of 4 × 10^5 cells per well and treated with SFN at indicated concentrations for 3 days. Cell lysates were harvested and the amount of bilirubin was quantified using Calibrator for Automated Systems (c.f.a.s) (Roche Diagnostics Ltd., South San Francisco, CA, USA) and MeDiPro direct bilirubin test kit (Formosa Biomedical Technology Corp., Taipei, Taiwan). The absorbance values at 546 and 660 nm were measured using the Epoch microplate spectrophotometer (BioTek Instruments, Inc., Winooski, VT, USA).
The parental Huh-7 cells were used to determine basal bilirubin levels. […] Ava5 cells were treated with the indicated concentrations of SFN for 3 days. The expression of BVR was analyzed by qRT-PCR and Western blotting using specific primers and antibodies for BVR and GAPDH, respectively. GAPDH expression was used as protein loading control.

[6] = test system: IFN response (IFN-α, ISRE, OAS1, OAS2, OAS3, PKR)
Procedure: as §2

[7] = target: HCV NS3/4A protease (Hepatitis C virus genotype 1b, UniProt Q9WMX2); conditions: Huh-7 cells, 0–10 μM, 3 days, compared to untreated controls; restored with SnPP
HCV NS3/4A protease, sequence (Q9WMX2 1027-1657): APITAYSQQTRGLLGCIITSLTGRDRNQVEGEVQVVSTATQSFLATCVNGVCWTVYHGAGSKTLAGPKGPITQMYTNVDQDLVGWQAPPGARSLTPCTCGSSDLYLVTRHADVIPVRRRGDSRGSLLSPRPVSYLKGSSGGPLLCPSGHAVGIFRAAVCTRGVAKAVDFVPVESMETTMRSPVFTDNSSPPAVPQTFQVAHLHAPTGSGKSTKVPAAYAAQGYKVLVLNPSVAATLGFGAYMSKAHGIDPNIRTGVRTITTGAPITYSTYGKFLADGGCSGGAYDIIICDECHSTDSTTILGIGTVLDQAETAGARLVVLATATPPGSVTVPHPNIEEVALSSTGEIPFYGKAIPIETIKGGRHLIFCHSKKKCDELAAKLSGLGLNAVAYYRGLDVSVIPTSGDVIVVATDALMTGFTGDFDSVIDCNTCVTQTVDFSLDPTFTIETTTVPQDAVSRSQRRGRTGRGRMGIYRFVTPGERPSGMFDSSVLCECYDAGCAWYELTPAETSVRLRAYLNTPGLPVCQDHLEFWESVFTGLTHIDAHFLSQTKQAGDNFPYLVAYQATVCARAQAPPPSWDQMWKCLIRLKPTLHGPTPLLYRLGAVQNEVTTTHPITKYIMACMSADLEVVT
HCV NS3/4A protease, sequence (Q9WMX2 1658-1711): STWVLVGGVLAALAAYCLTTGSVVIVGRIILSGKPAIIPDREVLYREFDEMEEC
Procedure: The supernatants were harvested for measurement of SEAP activity by Phospha-Light assay kit (Tropix, Bedford, UK).
The culture supernatants were harvested and the SEAP activity was analyzed by Phospha-Light assay kit. Telaprevir (1 μM) and biliverdin (100 μM) served as positive controls for anti-HCV protease activity. The relative SEAP activities were presented as fold changes compared to untreated cells, in which as the activity was considered to be 1.

[8] = test system: HCV JFH-1 in Huh7.5 cells
Procedure: The effect of SFN on HCV entry was determined according to previously described methods [22]. Briefly, Huh7.5 cells were infected with JFH-1 and treated with SFN for 1 hour at 37°C (endocytosis/fusion period). Finally, cells were washed and incubated in complete culture medium at 37°C for 45 hours. Subsequently, the cells were collected to quantify intracellular HCV RNA copy numbers. The effect of SFN on assembly and secretion were determined according to previously described methods [23]. The Huh7.5 cells were infected with JFH-1 and treated with indicated concentration of SFN. The viral supernatants and cell pellets were collected at 3 days postinfection for virus titration by qRT-PCR.
(A) Huh7.5 cells were infected with JFH-1 and treated with SFN for 1 hr at 37°C and then the infectecells were washed and incubated in complete culture medium. The intracellular HCV RNA copy numbers were quantified by qRT-PCR. The treatment of heparin served as positive control for the inhibition of HCV entry. The relative HCV entry were presented as percentage changes compared to the SFN-untreated cells, which were considered as 100%. (B) Huh7.5 cells were infected with JFH-1 and then treated with SFN for 72 hrs. The supernatant and cell lysate were collected and the HCV RNA copy numbers were quantified by qRT-PCR.

[9] = test system: HCV JFH-1 (genotype 2a) in Huh-7 cells; conditions: JFH-1-infected Huh-7 cells, 3 days
Procedure: HCV infectious particles (JFH-1; genotype 2a) were produced as previously described. HCV infection assay was used to determine the antiviral effect of SFN. Huh-7 cells were seeded in 24-well plates at a density of 5 × 10^4 cells per well and were infected with HCV for 6 h at a multiplicity of infection (MOI) of 0.1. The HCV-infected cells were treated with different concentrations (0–10μM) of SFN and incubated for 3 days, following which total RNA samples were extracted and subjected to qRT-PCR analysis for the quantification of HCV replication.

[10] = test system: Nrf2/ARE; test: ARE transactivation and Nrf2 expression in Ava5 cells (p3xARE-Luc, Western blotting)
[11] = test system: HO-1; conditions: Ava5 cells, 0–10 μM, 3 days
Procedure: as §2
Western blotting was performed as previously described. Proteins from cell lysates were separated using SDS-PAGE and transferred onto PVDF membranes. […] The immunoreactive blot signals were detected using the enhanced chemiluminescence Western blotting reagent (Perkin-Elmer, CT, USA).

[12] = test system: PI3K; conditions: Ava5 cells, 7.5 μM SFN, 15 min after treatment
Procedure: as §3

[13] = rats, oral dosing of 50 μmol of SFN, cited from earlier work
[14] = test system: Ava5 cells; test: Cell viability / cytotoxicity, MTS assay; assay type: cell-based; conditions: at doses where viral replication was inhibited
Description: as §1

[15] = Hepatitis C virus, 72 h, Ava5 cells, 3 days, HCV RNA levels by qRT-PCR

C=CCN=C=S [Allyl isothiocyanate, allyl isothiocyanate]
CC50 at 3 days [1]: 33 ± 3 µM
Selective Index (SI) [2]: 1.5
EC50 [2, 15]: 20 ± 2 µM

S=C=NCc1ccccc1 [Benzyl isothiocyanate, benzyl isothiocyanate]
CC50 at 3 days [1]: 67 ± 2 µM
Selective Index (SI) [2]: 3
EC50 [2, 15]: 20 ± 2 µM

CCCCN=C=S [Butyl isothiocyanate, butyl isothiocyanate]
CC50 at 3 days [1]: 95 ± 6 µM

COC(=O)N[C@H](C(=O)N1CCC[C@H]1c1nc(-c2ccc(-c3ccc(-c4c[nH]c([C@@H]5CCCN5C(=O)[C@@H](NC(=O)OC)C(C)C)n4)cc3)cc2)c[nH]1)C(C)C [Daclatasvir]
Influence [3]: Synergistic
CI values at ED75 [3]: 0.5
CI values at ED90 [3]: 0.4
Influence [4]: Synergistic
CI values at ED75 [4]: 0.5
CI values at ED90 [4]: 0.4

S=C=NCCc1ccccc1 [Phenethyl isothiocyanate, phenethyl isothiocyanate]
CC50 at 3 days [1]: 10 ± 1.5 µM
EC50 ([2]; Hepatitis C virus, Ava5, 72 h): 2.5 ± 0.5 µM

CC(C)OC(=O)[C@H](C)N[P@](=O)(OC[C@H]1O[C@@H](n2ccc(=O)[nH]c2=O)[C@](C)(F)[C@@H]1O)Oc1ccccc1 [Sofobuvir, sofosbuvir]
Influence [3]: Synergistic
CI values at ED75 [3]: 0.5
CI values at ED90 [3]: 0.4
Influence [4]: Synergistic
CI values at ED75 [4]: 0.5
CI values at ED90 [4]: 0.4

C[S+]([O-])CCCCN=C=S (stereo not shown) [Sulforaphane]
bilirubin levels ([5]; 0–10 μM): significant increase
BVR RNA or protein levels [5]: did not detect any significant changes
IFN-α2 and IFN-α17 expression ([6]; Ava5 cells, 3 days, qRT-PCR, attenuated with SnPP): significantly induced
IFN-α levels in culture supernatants ([6]; Ava5 cells, ELISA, effective antiviral concentrations, attenuated by SnPP): significantly increased
expression of IFN response genes (OAS1, OAS2, OAS3, PKR) ([6]; Ava5 cells, qRT-PCR, attenuated by SnPP): significantly induced
ISRE-mediated luciferase activity ([6]; pISRE-Luc-transfected Ava5 cells, 3 days, attenuated with SnPP): significant induction
HCV protease activity (SEAP) [7]: significantly decreased
inhibition on viral entry ([8]; Huh7.5 cells infected with JFH-1, SFN 1 hour): no significant inhibition
inhibition on viral assembly ([8]; Huh7.5 cells infected with JFH-1, SFN 3 days): no significant inhibition
antiviral activity in the HCV JFH-1 infection system [9]: exhibited antiviral activity
protein levels of Keap1 and Bach1 ([10]; Ava5 cells): did not observe significant changes
expression of Nrf2 in cytoplasmic and nuclear fractions ([10]; Ava5 cells, concentration-dependent): significant increase
ARE-mediated luciferase activity ([10]; p3xARE-Luc-transfected Ava5 cells, 3 days, effective antiviral concentrations): significantly increased
HO-1 RNA and protein levels [11]: significantly increased
phosphorylation of PI3K [12]: significantly induced
plasma concentration ([13]; reached within 4h): around 20 μM
elimination half-life [13]: 2.2 h
time at which plasma concentration of SFN occurred [13]: 1 h
cytotoxicity (cell viability by MTS assay) [14]: did not induce significant cytotoxicity
CC50 at 3 days [1]: 52 ± 3 µM
inhibition of viral replication ([2]; 10 μM SFN, Ava5 cells, 3 days, compared to SFN-untreated cells): 90%
HCV protein synthesis and RNA replication ([2]; Ava5 cells, 0–10 μM, 3 days, concentration-dependent): significantly reduced
Selective Index (SI) [2]: ~10
EC50 ([2]; Hepatitis C virus, Ava5, 72 h): 5 ± 1.5 µM
IC50 ([2]; Hepatitis C virus, Ava5, HCV replicon cells and infectious system, read-out: IC50 value, suppression of HCV protein and RNA levels): 5.7 ± 0.2 µM

CCC[C@H](NC(=O)[C@@H]1[C@H]2CCC[C@H]2CN1C(=O)[C@@H](NC(=O)[C@@H](NC(=O)c1cnccn1)C1CCCCC1)C(C)(C)C)C(=O)C(=O)NC1CC1 [Telapriver, telaprevir]
Influence [3]: Synergistic
CI values at ED75 [3]: 0.7
CI values at ED90 [3]: 0.6
Influence [4]: Synergistic
CI values at ED75 [4]: 0.6
CI values at ED90 [4]: 0.5
